This note sets out measurements from ChEMBL document CHEMBL1201862, “PubChem BioAssay data set” (2004).

The structures appear in SMILES notation.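 96-well plates; 48 h exposure; 5 concentrations. Endpoints by linear interpolation between flanking doses. Not reached: highest tested concentration assigned. At the GI50, growth is halved.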 The source made the active and inactive calls. No stated cut-off is given here; in the data, active = GI50 up to about 1.1 µM and inactive = higher.

Test systems include TK-10; MOLT-4; NCI/ADR-RES; DU-145; NCI-H522; NCI-H460; SW-620; HCT-116; IGROV-1; OVCAR-4; SN12C; KM12; SF-268; COLO 205; M14; U-251; OVCAR-8; SK-MEL-28; LOX IMVI; RPMI-8226.
Test in all cases: growth of human tumour cells (NCI), 48 h

For `C=CC(C)(C)/C=C/c1ccc(O)cc1`, the GI50 in the assay on TK-10 was 36.1 µM (inactive); with MOLT-4 it was 38.5 µM (inactive); with NCI/ADR-RES, 47.9 µM (inactive); with DU-145, 40.4 µM (inactive); in the assay with NCI-H522, 34.4 µM (inactive); with NCI-H460 it was 19.8 µM (inactive). In addition, the GI50 in the assay on SW-620 is 33.3 µM (inactive); in the assay with HCT-116 it was 31.3 µM (inactive); in the assay on IGROV-1, 44 µM (inactive); in the assay on OVCAR-4 it was 55.5 µM (inactive); in the assay with SN12C, 34.5 µM (inactive); in the assay on KM12, 39.3 µM (inactive). In addition, the GI50 is 33.9 µM (inactive) in the assay with SF-268; 35.5 µM (inactive) in the assay on COLO 205; 43.1 µM (inactive) in the assay on M14; 30 µM (inactive) with U-251; 39.7 µM (inactive) in the assay on OVCAR-8; 35.9 µM (inactive) in the assay with SK-MEL-28. The GI50 is 21.9 µM (inactive) in the assay on LOX IMVI and 27.5 µM (inactive) with RPMI-8226.
For `NC(=O)/C=C/c1c[nH]c2nccnc12`, the GI50 was 2.43 µM (inactive) in the assay with TK-10; 0.641 µM (active) in the assay with MOLT-4; 2.89 µM (inactive) in the assay with NCI/ADR-RES; 3.44 µM (inactive) in the assay on DU-145; 7.13 µM (inactive) with NCI-H522; 3.7 µM (inactive) with NCI-H460. The GI50 in the assay on SW-620 is 0.891 µM (active); in the assay on HCT-116, 1.59 µM (inactive); in the assay with IGROV-1, 3.83 µM (inactive); in the assay with OVCAR-4, 4.09 µM (inactive); in the assay with SN12C, 1.01 µM (active); in the assay on KM12, 2.93 µM (inactive). In addition, the GI50 is 2.05 µM (inactive) in the assay on SF-268; 1.67 µM (inactive) with COLO 205; 3.97 µM (inactive) in the assay with M14; 4.85 µM (inactive) with U-251; 2.86 µM (inactive) with OVCAR-8; 0.628 µM (active) with SK-MEL-28. In addition, the results for the GI50 in the assay on LOX IMVI and with RPMI-8226 were 0.625 µM (active) and 2.43 µM (inactive), respectively.
Turning to `Cc1ccc(/C(Cl)=C/C=C(C#N)C#N)cc1`, the GI50 in the assay on TK-10 is 2.25 µM (inactive); with MOLT-4 it was 0.65 µM (active); in the assay with NCI/ADR-RES it was 2.18 µM (inactive); in the assay with DU-145 it was 11.3 µM (inactive); in the assay on NCI-H522, 1.98 µM (inactive); with NCI-H460, 3.8 µM (inactive). In addition, the GI50 with SW-620 is 1.91 µM (inactive); in the assay on HCT-116 it was 1.83 µM (inactive); in the assay with IGROV-1, 3.59 µM (inactive); with OVCAR-4, 3.22 µM (inactive); with SN12C, 3.72 µM (inactive); with KM12, 5.22 µM (inactive). Moreover, the GI50 was 5.9 µM (inactive) in the assay on SF-268; 3.31 µM (inactive) in the assay with COLO 205; 2.51 µM (inactive) in the assay with M14; 4.18 µM (inactive) in the assay on U-251; 3.16 µM (inactive) in the assay on OVCAR-8; 2.14 µM (inactive) with SK-MEL-28. For the same compound, the GI50 was 1.17 µM (inactive) with LOX IMVI and 2.35 µM (inactive) in the assay with RPMI-8226.
For `CCOP(=O)(C/C=C/Cn1nc(Br)c(=O)[nH]c1=O)OCC`, the GI50 with TK-10, in the assay with MOLT-4, in the assay on NCI/ADR-RES, with DU-145, in the assay on NCI-H522 and with NCI-H460 was > 100 µM (inactive) throughout. The GI50 in the assay with SW-620, in the assay on HCT-116, in the assay on IGROV-1, with OVCAR-4, in the assay on SN12C and in the assay on KM12 was > 100 µM (inactive) each time. For the same compound, the GI50 in the assay on SF-268, in the assay with COLO 205, with M14, in the assay on U-251, in the assay with OVCAR-8 and in the assay with SK-MEL-28 was > 100 µM (inactive) throughout. Further, the GI50 in the assay on LOX IMVI and with RPMI-8226 was > 100 µM (inactive) each time.
For `N=c1nc2n(cc1F)[C@@H]1O[C@H](CO)[C@@H](O)[C@@H]1O2`, the GI50 in the assay on TK-10 is > 75.5 µM (inactive); in the assay on MOLT-4 it was 0.0336 µM (active); with NCI/ADR-RES, 9.59 µM (inactive); in the assay with DU-145 it was 0.971 µM (active); in the assay with NCI-H522 it was 4.18 µM (inactive); with NCI-H460, 0.286 µM (active). The GI50 in the assay with SW-620 was > 20.5 µM (inactive); in the assay with HCT-116 it was 1.31 µM (inactive); with IGROV-1 it was 47.4 µM (inactive); in the assay on OVCAR-4, > 100 µM (inactive); in the assay on SN12C, 14.4 µM (inactive); with KM12, > 100 µM (inactive). The GI50 with SF-268 is 4.22 µM (inactive); with COLO 205, 14 µM (inactive); with M14, 1.45 µM (inactive); with U-251 it was 24.8 µM (inactive); in the assay with OVCAR-8, 1.04 µM (active); in the assay on SK-MEL-28, > 63.7 µM (inactive). Besides, the results for the GI50 in the assay on LOX IMVI and in the assay with RPMI-8226 were 1.06 µM (active) and 56.9 µM (inactive), respectively.
As for `Cc1cc(S(=O)(=O)Nc2nc(N)n[nH]2)c(S)cc1Cl`, the GI50 in the assay on TK-10, with MOLT-4, in the assay on NCI/ADR-RES, in the assay on DU-145, in the assay on NCI-H522 and in the assay on NCI-H460 was > 10 µM (inactive) in each case. The GI50 with SW-620, in the assay on HCT-116, in the assay with IGROV-1, in the assay on OVCAR-4, with SN12C and with KM12 was > 10 µM (inactive) in each case. In addition, the GI50 in the assay on SF-268, with COLO 205, in the assay on M14, in the assay on U-251, in the assay on OVCAR-8 and in the assay with SK-MEL-28 was > 10 µM (inactive) each time. Also, the GI50 in the assay with LOX IMVI and in the assay with RPMI-8226 was > 10 µM (inactive) in each case.
In the case of `COC(=O)c1ccc(NCc2cc(O)ccc2O)cc1O`, the GI50 is 16.7 µM (inactive) with TK-10; 2.09 µM (inactive) with MOLT-4; 1.85 µM (inactive) with NCI/ADR-RES; 12.3 µM (inactive) with DU-145; 0.405 µM (active) with NCI-H522; 14.4 µM (inactive) in the assay with NCI-H460. For the same compound, the GI50 in the assay with SW-620 was 6.55 µM (inactive); in the assay with HCT-116, 17.5 µM (inactive); in the assay with IGROV-1, 8.97 µM (inactive); with OVCAR-4 it was 13.2 µM (inactive); in the assay on SN12C it was 8.38 µM (inactive); with KM12, 3.28 µM (inactive). Besides, the GI50 is 7.29 µM (inactive) with SF-268; 16.7 µM (inactive) in the assay with COLO 205; 16.5 µM (inactive) with M14; 11.9 µM (inactive) in the assay on U-251; 3.29 µM (inactive) in the assay with OVCAR-8; 16.4 µM (inactive) in the assay on SK-MEL-28. The results for the GI50 in the assay with LOX IMVI and in the assay with RPMI-8226 were 13 µM (inactive) and 1.17 µM (inactive), respectively.
As to `C/C(=N\Nc1nc2ccccc2[nH]1)c1ccncn1`, the GI50 is 3.43 µM (inactive) in the assay on TK-10; 0.17 µM (active) in the assay with MOLT-4; 0.153 µM (active) in the assay on NCI/ADR-RES; 0.0843 µM (active) in the assay on DU-145; 0.104 µM (active) in the assay on NCI-H522; 0.0914 µM (active) in the assay on NCI-H460. The GI50 in the assay on SW-620 is 0.134 µM (active); in the assay on HCT-116, 0.113 µM (active); with IGROV-1, 0.103 µM (active); with OVCAR-4 it was 0.324 µM (active); in the assay with SN12C, 0.275 µM (active); in the assay on KM12 it was 0.27 µM (active). Also, the GI50 in the assay on SF-268 is 0.0879 µM (active); with COLO 205 it was 0.128 µM (active); in the assay on M14 it was 0.0951 µM (active); in the assay on U-251, 0.147 µM (active); in the assay on OVCAR-8, 0.124 µM (active); in the assay with SK-MEL-28 it was 0.396 µM (active). The GI50 in the assay with LOX IMVI is 0.0942 µM (active); with RPMI-8226, 0.196 µM (active).
As for `COC(=O)c1cccc2c1Oc1ccccc1S2`, the GI50 in the assay with TK-10 was > 100 µM (inactive); with MOLT-4, 24.5 µM (inactive); in the assay with NCI/ADR-RES, 34.4 µM (inactive); with DU-145, > 100 µM (inactive); with NCI-H522, 27.1 µM (inactive); in the assay with NCI-H460, 44.3 µM (inactive). Moreover, the GI50 is 59.6 µM (inactive) with SW-620; 47.1 µM (inactive) with HCT-116; 56.2 µM (inactive) in the assay with IGROV-1; 66.4 µM (inactive) in the assay with OVCAR-4; 56.6 µM (inactive) with SN12C; 12 µM (inactive) with KM12. In addition, the GI50 in the assay on SF-268 is 38.8 µM (inactive); with COLO 205, 19.6 µM (inactive); with M14, > 100 µM (inactive); in the assay on U-251, 59.6 µM (inactive); in the assay on OVCAR-8 it was 74.3 µM (inactive); in the assay with SK-MEL-28 it was 96.8 µM (inactive). Also, the values for the GI50 with LOX IMVI and in the assay on RPMI-8226 were > 100 µM (inactive) and 61.1 µM (inactive), respectively.
On to `Cc1ccc(C(=O)OCC(C)C)cc1/N=N/N(C)C`, for which the GI50 was > 100 µM (inactive) in the assay with TK-10; 59.7 µM (inactive) in the assay with MOLT-4; 97.1 µM (inactive) with NCI/ADR-RES; > 100 µM (inactive) in the assay on DU-145; 35.2 µM (inactive) in the assay on NCI-H522; > 100 µM (inactive) in the assay on NCI-H460. Also, the GI50 in the assay on SW-620 is > 100 µM (inactive); with HCT-116 it was > 61.9 µM (inactive); in the assay on IGROV-1 it was > 100 µM (inactive); with OVCAR-4 it was > 71.8 µM (inactive); in the assay on SN12C, > 65 µM (inactive); in the assay on KM12 it was 38.8 µM (inactive). Besides, the GI50 in the assay with SF-268 is 42.9 µM (inactive); with COLO 205, > 100 µM (inactive); in the assay on M14, 67 µM (inactive); with U-251, 65.6 µM (inactive); in the assay on OVCAR-8, > 100 µM (inactive); in the assay with SK-MEL-28, > 71 µM (inactive). Further, the figures for the GI50 in the assay on LOX IMVI and in the assay on RPMI-8226 were 31.1 µM (inactive) and 77.6 µM (inactive), respectively.
